This note sets out measurements from patent US10125129B2 (priority 2016, dated 2018).

Like-named read-outs stand apart in the source and are kept apart here.

The assay has as its target T1, μ opioid receptor (MOR) (Homo sapiens, UniProt P35372).
T1 construct: expressed in transfected cells
The experiment in a line: cell-based. The class given is cell-based.

T1 sequence (P35372 whole entry): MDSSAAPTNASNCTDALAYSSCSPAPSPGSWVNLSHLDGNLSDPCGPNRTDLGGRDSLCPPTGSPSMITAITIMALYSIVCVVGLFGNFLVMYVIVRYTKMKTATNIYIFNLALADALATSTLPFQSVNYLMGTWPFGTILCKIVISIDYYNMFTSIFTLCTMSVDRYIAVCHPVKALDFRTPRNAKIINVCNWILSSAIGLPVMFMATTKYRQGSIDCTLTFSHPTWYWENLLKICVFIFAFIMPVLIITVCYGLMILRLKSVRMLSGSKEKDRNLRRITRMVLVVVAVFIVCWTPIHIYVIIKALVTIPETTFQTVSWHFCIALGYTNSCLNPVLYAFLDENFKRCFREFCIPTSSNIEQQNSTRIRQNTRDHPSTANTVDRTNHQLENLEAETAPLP

`COC(=O)[C@@H]1C=C(OC(=O)c2cccc([N+](=O)[O-])c2)C(=O)[C@H]2[C@@]1(C)CC[C@H]1C(=O)O[C@H](c3ccoc3)C[C@]21C` [Series 2 Entry 3, (2S,4aR,6aR,7R,10aR,10bR)-Methyl 2-(furan-3-yl)-6a,10b-dimethyl-9-((3-nitrobenzoyl)oxy)-4,10-dioxo-2,4,4a,5,6,6a,7,10,10a,10b-decahydro-1H-benzo[f]isochromene-7-carboxylate]: under “Series 2 EC50”, the concentration giving a half-maximal response (EC50) (in general, the concentration that produces a half-maximal response) is 320 ± 10 nM.
On to `COC(=O)[C@@H]1C=C(OC(=O)c2cccc(OC)c2)C(=O)[C@H]2[C@@]1(C)CC[C@H]1C(=O)O[C@H](c3ccoc3)C[C@]21C` [Series 2 Entry 15, (2S,4aR,6aR,7R,10aR,10bR)-Methyl 2-(furan-3-yl)-9-((3-methoxybenzoyl)oxy)-6a,10b-dimethyl-4,10-dioxo-2,4,4a,5,6,6a,7,10,10a,10b-decahydro-1H-benzo[f]isochromene-7-carboxylate], for which the 50% effective concentration (EC50) (read-out: Series 2 EC50) stood at 11 ± 2 nM.
Regarding `COC(=O)[C@@H]1C=C(OC(=O)c2cc3ccccc3s2)C(=O)[C@H]2[C@@]1(C)CC[C@H]1C(=O)O[C@H](c3ccoc3)C[C@]21C` [Table 3 Entry 13], the EC50 (EC50) worked out at 6 ± 1 nM.
In turn, `COC(=O)[C@@H]1C[C@H](OC(=O)c2cccc(Cl)c2)C(=O)[C@H]2[C@@]1(C)CC[C@H]1C(=O)O[C@H](c3ccoc3)C[C@]21C` [Series 1 Entry 6, (2S,4aR,6aR,7R,9S,10aS,10bR)-Methyl 9-((3-chlorobenzoyl)oxy)-2-(furan-3-yl)-6a,10b-dimethyl-4,10-dioxododecahydro-1H-benzo[f]isochromene-7-carboxylate] yielded a 50% effective concentration (EC50) (Series 1 EC50) of 2400 ± 100 nM.
In turn, `COC(=O)[C@@H]1C=C(OC(=O)c2cncnc2)C(=O)[C@H]2[C@@]1(C)CC[C@H]1C(=O)O[C@H](c3ccoc3)C[C@]21C` [Table 3 Entry 11, (2S,4aR,6aR,7R,10aR,10bR)-2-(Furan-3-yl)-7-(methoxycarbonyl)-6a,10b-dimethyl-4,10-dioxo-2,4,4a,5,6,6a,7,10,10a,10b-decahydro-1H-benzo[f]isochromen-9-yl pyrimidine-5-carboxylate] had a concentration giving a half-maximal response (EC50) (EC50) of 6 ± 1 nM.
`COC(=O)[C@@H]1C=C(OC(=O)c2cc3ccccc3o2)C(=O)[C@H]2[C@@]1(C)CC[C@H]1C(=O)O[C@H](c3ccoc3)C[C@]21C` [Series 2 Entry 22, (2S,4aR,6aR,7R,10aR,10bR)-Methyl 9-((benzofuran-2-carbonyl)oxy)-2-(furan-3-yl)-6a,10-dimethyl-4,10-dioxo-2,4,4a,5,6,6a,7,10,10a,10bdecahydro-1H-benzo[f]isochromene-7-carboxylate] registered an EC50 (Series 2 EC50) of 31 ± 9 nM.
`COC(=O)[C@@H]1C[C@H](OC(=O)c2cccc(F)c2)C(=O)[C@H]2[C@@]1(C)CC[C@H]1C(=O)O[C@H](c3ccoc3)C[C@]21C` [Series 1 Entry 9, (2S,4aR,6aR,7R,9S,10aS,10bR)-Methyl 9-((3-fluorobenzoyl)oxy)-2-(furan-3-yl)-6a,10b-dimethyl-4,10-dioxododecahydro-1H-benzo[f]isochromene-7-carboxylate]: the EC50 (Series 1 EC50) came to 460 ± 80 nM.
In turn, `COC(=O)[C@@H]1C=C(OC(=O)c2cccc(F)c2)C(=O)[C@H]2[C@@]1(C)CC[C@H]1C(=O)O[C@H](c3ccoc3)C[C@]21C` [Series 2 Entry 9, (2S,4aR,6aR,7R,10aR,10bR)-Methyl 9-((3-fluorobenzoyl)oxy)-2-(furan-3-yl)-6a,10b-dimethyl-4,10-dioxo-2,4,4a,5,6,6a,7,10,10a,10b-decahydro-1H-benzo[f]isochromene-7-carboxylate] yielded a concentration giving a half-maximal response (EC50) (Series 2 EC50) of 15 ± 2 nM.
`COC(=O)[C@@H]1C[C@H](OC(=O)c2ccccc2F)C(=O)[C@H]2[C@@]1(C)CC[C@H]1C(=O)O[C@H](c3ccoc3)C[C@]21C` [Series 1 Entry 8, (2S,4aR,6aR,7R,9S,10aS,10bR)-Methyl 9-((2-fluorobenzoyl)oxy)-2-(furan-3-yl)-6a,10b-dimethyl-4,10-dioxododecahydro-1H-benzo[f]isochromene-7-carboxylate] had a concentration for a half-maximal effect (EC50) (Series 1 EC50) of 400 ± 100 nM.
On to `COC(=O)[C@@H]1C=C(OC(=O)c2ccccc2Cl)C(=O)[C@H]2[C@@]1(C)CC[C@H]1C(=O)O[C@H](c3ccoc3)C[C@]21C` [Series 2 Entry 5, (2S,4aR,6aR,7R,10aR,10bR)-Methyl 9-((2-chlorobenzoyl)oxy)-2-(furan-3-yl)-6a,10b-dimethyl-4,10-dioxo-2,4,4a,5,6,6a,7,10,10a,10b-decahydro-1H-benzo[f]isochromene-7-carboxylate], for which a half-maximal response (Series 2 EC50) (EC50) required 290 ± 20 nM.
On the same count and under the same terms, in the case of `COC(=O)[C@@H]1C=C(OC(=O)c2cccnc2)C(=O)[C@H]2[C@@]1(C)CC[C@H]1C(=O)O[C@H](c3ccoc3)C[C@]21C` [Series 2 Entry 18, (2S,4aR,6aR,7R,10aR,10bR)-2-(Furan-3-yl)-7-(methoxycarbonyl)-6a,10b-dimethyl-4,10-dioxo-2,4,4a,5,6,6a,7,10,10a,10b-decahydro-H-benzo[f]isochromen-9-yl nicotinate] it was 3.3 ± 0.8 nM.
Compound `COC(=O)[C@@H]1C=C(OC(=O)c2cocn2)C(=O)[C@H]2[C@@]1(C)CC[C@H]1C(=O)O[C@H](c3ccoc3)C[C@]21C` [Table 3 Entry 9, (2S,4aR,6aR,7R,10aR,10bR)-2-(Furan-3-yl)-7-(methoxycarbonyl)-6a,10b-dimethyl-4,10-dioxo-2,4,4a,5,6,6a,10,10a,10b-decahydro-1H-benzo[f]isochromen-9-yl oxazole-4-carboxylate] came in with an EC50 (EC50) of 30 ± 2 nM.
The same measure, in the same setting: to `COC(=O)[C@@H]1C=C(OC(=O)c2cnco2)C(=O)[C@H]2[C@@]1(C)CC[C@H]1C(=O)O[C@H](c3ccoc3)C[C@]21C` [Table 3 Entry 10, (2S,4aR,6aR,7R,10aR,10bR)-2-(Furan-3-yl)-7-(methoxycarbonyl)-6a,10b-dimethyl-4,10-dioxo-2,4,4a,5,6,6a,7,10,10a,10b-decahydro-1H-benzo[f]isochromen-9-yl oxazole-5-carboxylate] belongs more than 10000 nM.
On to `COC(=O)[C@@H]1C[C@H](OC(=O)c2ccc(Cl)cc2)C(=O)[C@H]2[C@@]1(C)CC[C@H]1C(=O)O[C@H](c3ccoc3)C[C@]21C` [Series 1 Entry 7, (2S,4aR,6aR,7R,9S,10aS,10bR)-Methyl 9-((4-chlorobenzoyl)oxy)-2-(furan-3-yl)-6a,10b-dimethyl-4,10-dioxododecahydro-1H-benzo[f]isochromene-7-carboxylate], for which, under “Series 1 EC50”, a half-maximal response (EC50) required 700 ± 100 nM.
Turning to `COC(=O)[C@@H]1C=C(OC(=O)c2ccc(Cl)cc2)C(=O)[C@H]2[C@@]1(C)CC[C@H]1C(=O)O[C@H](c3ccoc3)C[C@]21C` [Series 2 Entry 7, (2S,4aR,6aR,7R,10aR,10bR)-Methyl 9-((4-chlorobenzoyl)oxy)-2-(furan-3-yl)-6a,10b-dimethyl-4,10-dioxo-2,4,4a,5,6,6a,7,10,10a,10b-decahydro-1H-benzo[f]isochromene-7-carboxylate], for the setting “Series 2 EC50”, the EC50 is 29 ± 8 nM.
`COC(=O)[C@@H]1C[C@H](OC(=O)c2ccncc2)C(=O)[C@H]2[C@@]1(C)CC[C@H]1C(=O)O[C@H](c3ccoc3)C[C@]21C` [Series 1 Entry 19, (2S,4aR,6aR,7R,9S,10aS,10bR)-2-(furan-3-yl)-7-(methoxycarbonyl)-6a,10b-dimethyl-4,10-dioxododecahydro-2H-benzo[f]isochromen-9-yl isonicotinate] had an EC50 (Series 1 EC50) of 340 ± 10 nM.
Regarding `COC(=O)[C@@H]1C[C@H](OC(=O)c2ccc(F)cc2)C(=O)[C@H]2[C@@]1(C)CC[C@H]1C(=O)O[C@H](c3ccoc3)C[C@]21C` [Series 1 Entry 10, (2S,4aR,6aR,7R,9S,10aS,10bR)-Methyl 9-((4-fluorobenzoyl)oxy)-2-(furan-3-yl)-6a,10b-dimethyl-4,10-dioxododecahydro-1H-benzo[f]isochromene-7-carboxylate], the EC50 (Series 1 EC50) is 800 ± 200 nM.
Take `COC(=O)[C@@H]1C[C@H](OC(=O)c2ccccc2OC)C(=O)[C@H]2[C@@]1(C)CC[C@H]1C(=O)O[C@H](c3ccoc3)C[C@]21C` [Series 1 Entry 14]: the EC50 (Series 1 EC50) amounted to 3300 ± 300 nM.
`COC(=O)[C@@H]1C=C(OC(=O)c2ccc(F)cc2)C(=O)[C@H]2[C@@]1(C)CC[C@H]1C(=O)O[C@H](c3ccoc3)C[C@]21C` [Series 2 Entry 10, (2S,4aR,6aR,7R,10aR,10bR)-Methyl 9-((4-fluorobenzoyl)oxy)-2-(furan-3-yl)-6a,10b-dimethyl-4,10-dioxo-2,4,4a,5,6,6a,7,10,10a,10b-decahydro-1H-benzo[f]isochromene-7-carboxylate] displayed an EC50 (Series 2 EC50) of 5 ± 1 nM.
The compound `COC(=O)[C@@H]1C[C@H](OC(=O)c2ccccn2)C(=O)[C@H]2[C@@]1(C)CC[C@H]1C(=O)O[C@H](c3ccoc3)C[C@]21C` [Series 1 Entry 17, (2S,4aR,6aR,7R,9S,10aS,10bR)-2-(furan-3-yl)-7-(methoxycarbonyl)-6a,10b-dimethyl-4,10-dioxododecahydro-2H-benzo[f]isochromen-9-yl picolinate] showed a half-maximal effective concentration (EC50) (Series 1 EC50) of more than 50000 nM.
Still for that read-out and setting: in the case of `COC(=O)[C@@H]1C[C@H](OC(=O)c2cccc([N+](=O)[O-])c2)C(=O)[C@H]2[C@@]1(C)CC[C@H]1C(=O)O[C@H](c3ccoc3)C[C@]21C` [Series 1 Entry 3] it was 3500 ± 200 nM.
For the compound `COC(=O)[C@@H]1C=C(OC(=O)c2ccccc2C)C(=O)[C@H]2[C@@]1(C)CC[C@H]1C(=O)O[C@H](c3ccoc3)C[C@]21C` [Series 2 Entry 11, (2S,4aR,6aR,7R,10aR,10bR)-Methyl 2-(furan-3-yl)-6a,10b-dimethyl-9-((2-methylbenzoyl)oxy)-4,10-dioxo-2,4,4a,5,6,6a,7,10,10a,10b-decahydro-1H-benzo[f]isochromene-7-carboxylate], it took 240 ± 40 nM to reach a half-maximal effect (Series 2 EC50) (EC50).
For the setting “Series 1 EC50”, `COC(=O)[C@@H]1C[C@H](OC(=O)c2ccccc2Cl)C(=O)[C@H]2[C@@]1(C)CC[C@H]1C(=O)O[C@H](c3ccoc3)C[C@]21C` [Series 1 Entry 5, (2S,4aR,6aR,7R,9S,10aS,10bR)-Methyl 9-((2-chlorobenzoyl)oxy)-2-(furan-3-yl)-6a,10b-dimethyl-4,10-dioxododecahydro-1H-benzo[f]isochromene-7-carboxylate] gave a half-maximal effective concentration (EC50) of 3400 ± 200 nM.
